Source: US20180020668A1, “Agricultural Mixtures” (priority 2015, published 2018)

How the values were obtained:
Format in all cases: in vivo
Rhizoctonia = assay: Corn emergence, vigor and pest infestation study (Example 1, two plantings); details: for Plant Emergence: corn, field inoculated with Rhizoctonia, seed treatment, rates per treatment in mg ai/seed; for Plant Emergence / Pest Severity / Pest Incidence / Plant Vigor: about 30 DAP; for Pest Severity: percentage of infected plants; for Pest Incidence / Plant Vigor: rated on a scale of 1 to 9; for Plant Yield: about six months after planting
corn [1] = assay: Corn plant stand establishment and yield study (Example 2); details: seed treatment, rates in mg active[s] per seed
Protocol: A study was conducted in order to determine the effects of seed treatments on the number of corn plants per acre and yield. One acre was planted with seeds treated as indicated below in a randomized block design. Treatments were applied to the seeds in a manner known by those of skill in the art. The number of plants was determined for each treatment on four different days before harvest. After harvest, the yield of the plants was determined. The results of this study can be seen below in Tables 2 and 3.

corn [2] = assay: Another corn plant stand establishment and yield study (Example 3); details: seed treatment, rates in mg active[s] per seed
Protocol: Another study was conducted in order to determine the effects of seed treatments on the number of corn plants per acre and yield. The study design was the same as the study described in Example 1. The results of this study can be seen below in Tables 3 and 4.

With `CN1COCN(Cc2cnc(Cl)s2)C1=N[N+](=O)[O-]` [Thiamethoxam, 3-[(2-Chloro-1,3-thiazol-5-yl)methyl]-5-methyl-N-nitro-1,3,5-oxadiazinan-4-imine] the “Plant Emergence” value (Rhizoctonia; first planting) was 19800 plants per acre, the “Plant Emergence” value (Rhizoctonia; second planting) was 25450 plants per acre and the “Pest Severity” value (Rhizoctonia; first planting) was 41.3%. For the same compound, the “Pest Incidence” value (Rhizoctonia; first planting) was 3.8, the “Plant Vigor” value (Rhizoctonia; first planting) was 4.0 and the “Plant Yield” value (Rhizoctonia; first planting) was 60.8 Bu/A. The “Pest Severity” value (Rhizoctonia; second planting) was 16.3%, the “Pest Incidence” value (Rhizoctonia; second planting) was 6.5 and the “Plant Vigor” value (Rhizoctonia; second planting) was 5.5. The “Plant Yield” value (Rhizoctonia; second planting) was 106.7 Bu/A, the “Corn Plant Stand - Number of Plants Per Acre” value (corn [1]; 34 DAP) was 22052 Plants Per Acre and the “Corn Plant Stand - Number of Plants Per Acre” value (corn [1]; 116 DAP) was 20010 Plants Per Acre. The “Corn Plant Yield” value (corn [2]) was 172 Bushels/Acre.
